Measurements as given in EP0052492A1, “3-Aryloxy-3-phenylpropylamines” (ELI LILLY AND COMPANY, priority 1980, dated 1982).
Where two headings read alike, the source gives them in different places.

Legend:
[1] = test system: uptake of norepinephrine by synaptosomes isolated from the hypothalamus; assay: In vitro uptake of [3H]norepinephrine by rat hypothalamus synaptosomes (method of Wong and Bymaster); format: biochemical, male Sprague-Dawley rats; settings: for Uptake: [3H]norepinephrine uptake
Procedure: (§1) Monoamine uptake inhibition was measured by the in vitro method of Wong and Bymaster, cited above. In this method, male Sprague-Dawley rats weighing 110-150 g. were killed by decapitation, and the whole brains were removed and dissected. Crude preparations of synaptosomes were prepared from 10% homogenates of specific areas of the brain in 0.32M sucrose and lOmM glucose by differential centrifugation, according to the method of Gray and Whittaker, J. Anat. 96, 79 (1962).
(§2) Uptake of [^3H]monoamines by synaptosomes was determined as follows. A portion of a synaptosome preparation equivalent to 1 mg. of protein was incubated at 37°. for 5 minutes in 1 or 3 ml. of Krebs bicarbonate medium containing an additional 10mM of glucose, 0.1mM iproniazid, ImM ascorbic acid, 0.17mM ethylenediaminetetraacetic acid and [3H]monoamine at a specified concentration. The incubation mixtures were immediately diluted with 2 ml. of ice-chilled Krebs bicarbonate buffer containing 1mM non-radioactive monoamine. Synaptosomes were harvested by centrifugation, and rinsed with 5 ml. of cold buffer into counting vials containing 10 ml. of scintillation fluid. Radioactivity was measured with a liquid scintillation spectrometer, and the amount of [^3H]- monoamine accumulated by the synaptosomes at 4° represented the background count and was subtracted from the results obtained on all samples.

[2] = test system: uptake of norepinephrine by synaptosomes of the hypothalamus after 6-hydroxydopamine; assay: Protection against 6-hydroxydopamine-induced loss of norepinephrine uptake; format: in vivo, male Sprague-Dawley rat; settings: Rattus norvegicus, ip; for ED50: antagonism of 6-hydroxydopamine, intraperitoneally
From the text: The neurotoxic agent 6-hydroxydopamine has the property of destroying norepinephrinergic terminals of the central and peripheral nervous systems.

mice [3] = assay: Acute toxicity in mice; settings: injected in mice
[4] = test system: reduction in body temperature caused by apomorphine; assay: Apomorphine hypothermia antagonism test; format: in vivo, Mice; settings: for dose giving 50% antagonism of the hypothermia: compound intraperitoneally 30 minutes before apomorphine, temperature 30 minutes after
mice [5] = settings: mouse, in vivo
[6] = target: strips of fresh guinea pig trachea, acetylcholine as the agonist; assay: Anticholinergic activity in guinea pig tracheal strips, acetylcholine as agonist (Schild plot); format: cell-based; settings: for negative logarithm of the dissociation constant: acetylcholine as agonist, guinea pig trachea
Procedure: The test was carried out on 2mm. x 30mm. strips of fresh guinea pig trachea. The strips were suspended in 10 ml. organ baths containing physiological salt solution at 37.5°, and aerated with a mixture of 5% carbon dioxide and 95% oxygen. The tracheal strips were attached to isometric transducers connected to an automatic recorder, and were allowed to equilibrate under a tension of 2 g. for at least 2 hours before addition of drug. Dose-response curves were obtained by adding increasing concentrations of drug to the bath, in approximately 3-fold increments. […] Consecutive dose-response curves on a given tissue were always separated by 1 hour of washing with fresh physiological salt solution to assure maximum washout of drug.
Dissociation constants were determined using acetylcholine as the agonist. In this method, the ratio of concentrations of acetylcholine giving equal responses in the presence and in the absence of the compound of this invention was determined at various concentrations of the compound. […] The method of calculation is clearly discussed by Arunlakshana and Schild, Some Quantitative Uses of Drug Antagonists, Brit. J. Pharmacol. 14 48-58 (1959).

[7] = test system: uptake of [3H]-norepinephrine, hypothalamus; assay: Inhibition of norepinephrine uptake in hypothalamus homogenate after dosing live rats; format: in vivo, male Sprague-Dawley rats; settings: for inhibition at 10 mg/kg / ED50: Rattus norvegicus; for ED50: ip, read-out: ED50 value
Procedure: The test animals were male Sprague-Dawley rats weighing 110-150 g., which were treated in groups of 5 with the test compound at the doses and times specified, and were killed by decapitation. The hypothalamus was removed from each brain, and homogenized in a medium as described in the in vitro test above. Aliquots of the homogenate containing 1 mg. of protein were used; the incubation times, medium and temperature were as described in the test above.
The data were expressed another way by plotting the blood level of the compound against the rate of [^3H]norepinephrine uptake.

[8] = Oral absorption (statement only); settings: in vivo
[9] = test system: serotonin uptake, synaptosomes of cerebral cortex; assay: In vitro uptake of [3H]serotonin by cerebral cortex synaptosomes; format: biochemical, male Sprague-Dawley rats
Procedure: as §1
as §2, with “The incubation mixtures were immediately diluted with 2 ml. of ice-chilled Krebs bicarbonate buffer containing 1mM non-radioactive monoamine. Synaptosomes were harvested by centrifugation, and rinsed with 5 ml. of cold buffer into counting vials containing 10 ml. of scintillation fluid.” left out
(§3) The effect of the compound of this invention on the uptake of [^3H]serotonin and [^3H]dopamine was also determined, by the same test method, using synaptosomes isolated from the corpus striatum for the determination of dopamine uptake and synaptosomes of cerebral cortex for serotonin uptake.

[10] = test system: dopamine uptake, synaptosomes isolated from the corpus striatum; assay: In vitro uptake of [3H]dopamine by corpus striatum synaptosomes; format: biochemical, male Sprague-Dawley rats
Procedure: as §1
as §2, with “The incubation mixtures were immediately diluted with 2 ml. of ice-chilled Krebs bicarbonate buffer containing 1mM non-radioactive monoamine. Synaptosomes were harvested by centrifugation, and rinsed with 5 ml. of cold buffer into counting vials containing 10 ml. of scintillation fluid.” left out
as §3

[11] = test system: canine cardiac conducting tissue, sometimes called Purkinje fibers; settings: dog
From the text: Another test applied to the compound was one designed to detect electrophysiological effects in canine cardiac conducting tissue, sometimes called Purkinje fibers.

[12] = 4 h, four hours after administration, read-out: inhibition of norepinephrine uptake
[13] = inhibition of norepinephrine uptake, intraperitoneally, 1 hour before sacrifice
[14] = duration experiment up to 4 hours, read-out: maximum inhibition of norepinephrine uptake

**Q.** With `CNCC[C@H](Oc1ccccc1C)c1ccccc1` [(+)-enantiomer, reference compound] as the molecule, how does the IC50 ([1]; norepinephrine uptake, hypothalamus synaptosomes, read-out: IC50 value, concentration which inhibited half of the uptake activity) read?
**A.** 40 nM

**Q.** And the ED50 [2]?
**A.** ~22 mg/kg

**Q.** What about the “doses at which no deaths occurred” value (mice [3]) of the same molecule?
**A.** below 90 mg./kg.

**Q.** And the “dose giving 50% antagonism of the hypothermia” value [4]?
**A.** 2.26 mg/kg

**Q.** What about the antagonism ([4]; compound orally at 3 mg./kg., apomorphine intraperitoneally) of the same molecule?
**A.** 50%

**Q.** And the “time after administration at which mice were still stimulated” value (mice [5])?
**A.** ≥ 5 h

**Q.** What about the “negative logarithm of the dissociation constant” value [6] of the same molecule?
**A.** 6.04

**Q.** And the inhibition at 10 mg/kg [7, 12]?
**A.** 35%

**Q.** And the ED50 [7, 13]?
**A.** 6.3 mg/kg

**Q.** What about the inhibition at 10 mg/kg [7, 14] of the same molecule?
**A.** 70%

**Q.** And the inhibition at 10 mg/kg ([7]; second hour after administration, read-out: inhibition of norepinephrine uptake)?
**A.** 50%

**Q.** What does the source list for `CNCCC(Oc1ccccc1C)c1ccccc1.Cl` (single isomer, unassigned; (-)) [compound of this invention, (-)-N-methyl-3-(2-methylphenoxy)-3-phenylpropylamine, hydrochloride]?
**A.** Uptake ([1]; concentration 1 x 10^-9M, control without drug 3.9 x 10^-12 moles/mg. protein): 3.1 x 10^-12moles/mg. protein; Uptake ([1]; concentration 2 x 10^-9M, control 3.9): 2.2 x 10^-12moles/mg. protein; Uptake ([1]; concentration 3 x 10^-9M, control 3.9): 3.1 x 10^-12moles/mg. protein; Uptake ([1]; concentration 10 x 10^-9M, control 3.9): 1.4 x 10^-12moles/mg. protein; Uptake ([1]; concentration 30 x 10^-9M, control 3.9): 1.0 x 10^-12moles/mg. protein; Uptake ([1]; concentration 50 x 10^-9M, control 3.9): 0.9 x 10^-12moles/mg. protein; Uptake ([1]; concentration 100 x 10^-9M, control 3.9): 0.8 x 10^-12moles/mg. protein; potency in inhibiting the uptake of norepinephrine relative to the (+)-enantiomer ([1]; compared with the corresponding (+)-enantiomer): about 10 times; oral absorption [8]: orally absorbed; inhibition at 1 mg/kg ([2]; 1 mg./kg. intraperitoneally before 6-hydroxydopamine, read-out: reduced the inhibition of uptake (by 6-hydroxydopamine)): 15%; inhibition at 3 mg/kg ([2]; 3 mg./kg. intraperitoneally before 6-hydroxydopamine, read-out: reduced the inhibition of uptake (by 6-hydroxydopamine)): 43%; inhibition at 6 mg/kg ([2]; 6 mg./kg. intraperitoneally before 6-hydroxydopamine, read-out: reduced the inhibition of uptake (by 6-hydroxydopamine)): 70%; ED50 [2]: 4 mg/kg; doses at which no deaths occurred (mice [3]): below 90 mg./kg.; dose giving 50% antagonism of the hypothermia [4]: 0.16 mg/kg; highest antagonism ([4]; compound orally at 1 mg./kg., apomorphine intraperitoneally): 35%; IC50 [9]: 1000 nM; anticholinergic activity relative to the (+)-enantiomer ([6]; fraction of the activity of the (+)-enantiomer): 1/6; anticholinergic activity relative to the racemate ([6]; fraction of the activity of the racemate): 1/3; IC50 [10]: 4 µM; uptake of [3H]-norepinephrine reduced from the control value ([7]; 1 mg./kg. intraperitoneally, 1 hour before sacrifice): 35%; uptake of [3H]-norepinephrine reduced from the control value ([7]; 3 mg./kg. intraperitoneally, 1 hour before sacrifice): 58%; uptake of [3H]-norepinephrine reduced from the control value ([7]; 10 mg./kg. intraperitoneally, 1 hour before sacrifice): 68%; inhibition at 10 mg/kg [7, 12]: ~65%; ED50 [7, 13]: 2.1 mg/kg; inhibition at 10 mg/kg [7, 14]: > 80%; ED50 concentration in blood plasma ([7]; blood level plotted against rate of [3H]norepinephrine uptake): about 14 x 10^-9 g./ml.; concentration that suppressed the rate of rise and duration of the action potential [11]: 8 µM

**Q.** For `CNCCC(Oc1ccccc1C)c1ccccc1.Cl` (racemic) [racemate, N-methyl-3-(2-methylphenoxy)-3-phenylpropylamine, hydrochloride, reference compound], which “negative logarithm of the dissociation constant” value [6] is on record?
**A.** 5.72

**Q.** What about the ED50 [7] of the same molecule?
**A.** 3.4 mg/kg
